Paper PMC6108078 (Chemical research in toxicology, 2018)
Values joined by “and” are separate entries in the source; they are usually repeats but may differ in a detail not shown here. Equal entries are not always repeated. Where two headings read alike, the source gives them in different places.

How the values were obtained:
[1] = format: in vitro ADME, human
[2] = mass balance studies in humans; cited from earlier work
[3] = monkeys administered [14C]sunitinib L-malate; ref sunitinib NDA document, 9; cited from earlier work
[4] = cited from earlier work
P450 3A4 = P450 3A4 (Homo sapiens, UniProt P08684); test: Kinetics of sunitinib metabolite formation by recombinant P450 3A4; format: in vitro ADME; conditions: sunitinib N-deethylation (M1 formation), recombinant enzymes
P450 3A4, sequence (P08684 whole entry): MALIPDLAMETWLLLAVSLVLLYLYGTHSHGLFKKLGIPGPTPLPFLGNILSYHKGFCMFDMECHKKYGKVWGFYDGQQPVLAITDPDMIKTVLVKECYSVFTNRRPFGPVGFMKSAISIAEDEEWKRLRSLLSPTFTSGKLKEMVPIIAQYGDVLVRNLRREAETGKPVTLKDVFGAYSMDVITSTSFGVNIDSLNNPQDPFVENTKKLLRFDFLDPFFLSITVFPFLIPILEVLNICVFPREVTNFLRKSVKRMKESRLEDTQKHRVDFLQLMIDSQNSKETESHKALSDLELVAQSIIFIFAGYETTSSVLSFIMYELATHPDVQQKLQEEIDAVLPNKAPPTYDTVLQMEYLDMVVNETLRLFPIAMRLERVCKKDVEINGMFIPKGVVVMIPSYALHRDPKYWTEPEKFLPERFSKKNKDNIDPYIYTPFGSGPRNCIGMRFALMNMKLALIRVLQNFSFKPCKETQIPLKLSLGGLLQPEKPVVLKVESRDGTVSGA

[5] = for decrease of M5 formation compared to vehicle control: furafylline 25 μM, quinidine 2 μM
[6] = patients taking sunitinib; cited from earlier work
HepG2 cells = conditions: treatment of HepG2 cells; cited from earlier work
[7] = GSH trapping in pooled human liver microsomes; format: in vitro ADME; conditions: microsomal incubations in the absence of NADPH supplementation
[8] = in the absence of dGSH, sunitinib 25 μM, 1 mg/mL, 30 min
[9] = in the presence of dGSH (1 mM), sunitinib 25 μM, 1 mg/mL, 30 min
[10] = sunitinib 10 μM, 0.1 mg/mL, GSH 5 mM, 10 min, ketoconazole 1 μM, CYP3cide 2 μM, mean ± SD, n = 3

For CCNCCNC(=O)c1c(C)[nH]c(/C=C2\C(=O)Nc3ccc(F)cc32)c1C [M1, N-desethylsunitinib], the “M1 share of the metabolic turnover of sunitinib” value [1, 8] was 70%, the “ratio of M1 to sunitinib UV peak area” value [1, 8] was 0.70 and the “M1 share of the metabolic turnover of sunitinib” value [1, 9] was 41%. The “ratio of M1 to sunitinib (UV peak area at 420–440 nm)” value [1, 9] was 0.41, the “M1 share of sunitinib metabolic turnover in human liver microsomes” value ([1]; summary statement in discussion) was ≥ 41% and the “fold higher M1 levels in the absence of dGSH compared to in the presence of dGSH” value ([1]; sunitinib 25 μM, 1 mg/mL, 30 min, UV absorbance peak area at 430 nm, n = 2-3) was 2.5 fold. For the same compound, the “share of the total dose” value [2] was 32–52%, the “share of the total radioactivity recovered in feces” value [3] was 20–40% and the “activity relative to parent drug” value [4] was “equal to that of the parent drug”. For the same compound, the “fold higher efficiency (kcat/Km) of P450 3A4 compared to P450 1A2” value (P450 3A4) was ~5 fold.
For O=c1cc(-c2ccccc2)oc2c1ccc1ccccc12 [α-naphthoflavone], the “effect on formation of M3 and M5” value ([5]; initial experiments, coincubation with sunitinib, data not shown) was “significantly increased” and the “increase of M3 levels compared to control” value ([5]; sunitinib 10 μM, 0.1 mg/mL, GSH 5 mM, 10 min, α-naphthoflavone 1 μM, mean ± SD, n = 3) was 41 ± 17%.
For Cc1nc2c([nH]1)c(=O)n(C)c(=O)n2Cc1ccco1 [furafylline], the “decrease of M5 formation compared to vehicle control” value [5, 10] was 62% and 62 ± 17%.
In the case of CC(=O)N1CCN(c2ccc(OCC3COC(Cn4ccnc4)(c4ccc(Cl)cc4Cl)O3)cc2)CC1 (centres unmarked) [ketoconazole], the “decrease of M5 formation compared to vehicle control” value [5, 10] is reported as 52 ± 4%, the “decrease of M1 levels compared to vehicle control” value [5, 10] is reported as 88% and 88 ± 5% and the “decrease of M3 levels compared to control” value [5, 10] is reported as 40 ± 9%.
For CCN(CC)CCNC(=O)c1c(C)[nH]c(/C=C2\C(=O)Nc3ccc(F)cc32)c1C [sunitinib], the “occurrence of clinically significant liver injury” value [6] is given as 3–4 % of patients, the “occurrence of liver failure” value [6] is given as 0.3 % of patients and the hepatocellular toxicity effects (HepG2 cells) is given as “increase the production of reactive oxygen species, disrupt the mitochondrial membrane potential, deplete glutathione content, and induce apoptosis in a concentration-dependent manner”. The “direct GSH conjugation of parent drug (Sun–SG)” value [7] was “evidence for the direct conjugation of GSH to the parent drug”.
